In patent US7638526B2, “Azetidine derivatives useful in treating pain, diabetes and disorders of lipid metabolism” (Schering Corporation, priority 2006, dated 2009):

Target: T1, human Cav3.2 (Homo sapiens, UniProt O95180)
T1 construct: expressed in transfected cells
Assay: Conventional whole cell patch clamp, hCav3.2 current
Assay type: cell-based
Conditions: values marked * in Table 10; voltage clamp assay
Description: (§1) Functional evaluation of voltage-gated ion channels was used to determine potency and/or single concentration efficacy of proprietary compounds. Two different methodologies were used to measure ion currents: the IonWorks HT (Molecular Devices, Sunnyvale, Calif.) a moderate throughput voltage clamp screening platform that utilizes 96-well compound plates and conventional whole cell patch clamp for lower throughput, higher fidelity determinations.
HEK cells were transiently transfected and then selected for stable heterologous expression of different channel proteins of interest. Calcium channel cell lines expressed a resting potassium current, human Kir2.1, and the pore forming α-subunit of voltage-gated calcium channels. In the case of Cav2.1 cells the auxiliary subunit, β2a, was also expressed. […]
The holding potential was −100 mV for all protocols. […] Cav3.2 currents were measured as the peak current 10-30 milliseconds after the voltage was stepped to −35 mV. […] For hCav2.1 currents were activated with a 200 millisecond step to 0 mV. hCav2.1 currents were measured from the leak-subtracted traces as the average current between 190 and 200 milliseconds after the step to 0 mV. […] Sodium currents were measured from leak subtracted traces as the peak transient inward current.
All drug effects were measured after a steady-state effect was achieved. […]

T1 sequence (O95180 whole entry): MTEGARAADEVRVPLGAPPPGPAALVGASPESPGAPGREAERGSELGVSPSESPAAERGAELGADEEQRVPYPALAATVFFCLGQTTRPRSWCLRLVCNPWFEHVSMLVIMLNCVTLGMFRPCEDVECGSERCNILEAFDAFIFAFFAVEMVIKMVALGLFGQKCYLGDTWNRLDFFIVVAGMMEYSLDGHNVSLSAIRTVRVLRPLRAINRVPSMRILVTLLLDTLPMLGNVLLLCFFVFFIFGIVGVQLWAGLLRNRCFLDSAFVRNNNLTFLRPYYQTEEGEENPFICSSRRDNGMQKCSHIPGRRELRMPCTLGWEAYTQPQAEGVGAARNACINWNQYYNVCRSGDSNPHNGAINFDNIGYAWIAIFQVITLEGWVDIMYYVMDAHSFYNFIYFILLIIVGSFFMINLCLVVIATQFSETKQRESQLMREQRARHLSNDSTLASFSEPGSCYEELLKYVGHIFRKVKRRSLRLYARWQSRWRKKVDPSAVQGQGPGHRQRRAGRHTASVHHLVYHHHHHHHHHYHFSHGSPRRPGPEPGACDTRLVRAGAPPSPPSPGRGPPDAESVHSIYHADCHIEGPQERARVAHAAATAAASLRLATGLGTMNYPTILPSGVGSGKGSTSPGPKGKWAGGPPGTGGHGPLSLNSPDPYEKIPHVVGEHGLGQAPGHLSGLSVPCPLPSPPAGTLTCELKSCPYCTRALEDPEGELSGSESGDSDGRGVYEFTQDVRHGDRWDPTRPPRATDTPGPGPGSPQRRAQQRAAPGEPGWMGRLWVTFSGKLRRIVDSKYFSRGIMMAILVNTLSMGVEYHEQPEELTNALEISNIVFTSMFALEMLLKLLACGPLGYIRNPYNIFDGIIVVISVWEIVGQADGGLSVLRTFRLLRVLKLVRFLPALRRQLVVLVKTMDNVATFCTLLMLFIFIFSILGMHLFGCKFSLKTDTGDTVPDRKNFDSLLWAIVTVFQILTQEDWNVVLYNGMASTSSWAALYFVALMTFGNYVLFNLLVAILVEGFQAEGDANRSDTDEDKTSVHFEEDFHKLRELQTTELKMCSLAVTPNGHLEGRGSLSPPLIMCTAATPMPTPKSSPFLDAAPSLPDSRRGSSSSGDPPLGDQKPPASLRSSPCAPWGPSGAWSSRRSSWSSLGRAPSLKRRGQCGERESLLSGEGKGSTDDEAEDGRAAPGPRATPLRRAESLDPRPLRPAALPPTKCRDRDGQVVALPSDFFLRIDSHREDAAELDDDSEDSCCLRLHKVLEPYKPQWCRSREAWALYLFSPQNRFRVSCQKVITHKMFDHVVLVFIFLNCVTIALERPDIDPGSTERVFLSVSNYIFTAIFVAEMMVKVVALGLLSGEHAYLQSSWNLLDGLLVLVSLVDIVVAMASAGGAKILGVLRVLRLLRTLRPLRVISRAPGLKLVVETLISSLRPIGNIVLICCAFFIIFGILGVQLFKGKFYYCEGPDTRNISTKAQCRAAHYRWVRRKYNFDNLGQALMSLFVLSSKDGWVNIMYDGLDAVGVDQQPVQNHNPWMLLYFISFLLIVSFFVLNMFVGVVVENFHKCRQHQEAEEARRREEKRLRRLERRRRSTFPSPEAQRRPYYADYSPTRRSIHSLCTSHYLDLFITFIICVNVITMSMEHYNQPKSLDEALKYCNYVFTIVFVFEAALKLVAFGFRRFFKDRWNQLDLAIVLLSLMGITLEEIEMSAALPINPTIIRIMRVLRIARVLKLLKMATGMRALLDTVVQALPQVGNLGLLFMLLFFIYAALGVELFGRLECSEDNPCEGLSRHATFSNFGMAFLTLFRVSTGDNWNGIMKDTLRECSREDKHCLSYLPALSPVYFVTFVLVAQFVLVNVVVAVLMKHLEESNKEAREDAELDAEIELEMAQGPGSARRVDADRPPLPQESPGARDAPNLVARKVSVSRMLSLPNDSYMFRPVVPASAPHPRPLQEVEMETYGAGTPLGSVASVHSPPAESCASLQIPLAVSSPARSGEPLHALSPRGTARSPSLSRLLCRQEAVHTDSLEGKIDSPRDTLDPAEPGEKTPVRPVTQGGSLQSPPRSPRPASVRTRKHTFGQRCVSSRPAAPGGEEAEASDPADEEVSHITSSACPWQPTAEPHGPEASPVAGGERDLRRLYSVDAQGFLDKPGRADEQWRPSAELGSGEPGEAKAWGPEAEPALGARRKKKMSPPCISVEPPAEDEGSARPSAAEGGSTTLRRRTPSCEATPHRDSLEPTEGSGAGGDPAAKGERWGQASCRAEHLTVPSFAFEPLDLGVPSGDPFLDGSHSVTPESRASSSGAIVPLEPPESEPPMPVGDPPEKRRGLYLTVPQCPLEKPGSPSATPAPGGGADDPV

Row | IC50 [nM] | SMILES
1 | 202 | CC(C)CCN1CC2(CCN(C(=O)NC34CC5CC(CC(C5)C3)C4)CC2)C1c1ccc(F)cc1 (centres unmarked)
2 | 82 | CC[C@H](C)[C@H](NC(=O)N1CCC2(CC1)CN(C(C)C)C2c1ccc(Br)cc1)C(=O)OC (single isomer, unassigned)

Target: T1, human Cav3.2
Assay: Ionworks screen for hCaV3.2 (IonWorks HT voltage clamp, T-type calcium current)
Assay type: cell-based
Conditions: IonWorks (IW) screen
Description: as §1
HEK cells were transiently transfected and then selected for stable heterologous expression of different channel proteins of interest. Calcium channel cell lines expressed a resting potassium current, human Kir2.1, and the pore forming α-subunit of voltage-gated calcium channels. In the case of Cav2.1 cells the auxiliary subunit, β2a, was also expressed. Calcium channel lines that were used to generate the data in this document expressed either human Cav3.2, rat Cav3.2 or human Cav2.1. The human heart sodium channel, hNav1.5, was stably expressed in CHO cells. These cells were licensed from the University of Pennsylvania.
Cell lines were grown at 37° C. in humidified incubators, equilibrated with 95% air/5% CO2. CHO cells were grown in Ham's F-12 medium. HEK cells were grown in DMEM. All media were supplemented with 10% heat-inactivated fetal bovine serum, penicillin, streptomycin and appropriate selection antibiotics (zeocin, geneticin and/or hygromycin). Cells were passaged when 80% confluent or less.
Ionworks Screen for hCaV3.2
The extracellular buffer for experiments using this instrument contained the following (mM) (NaCl 125, HEPES 10, KCl 5.4, CaCl2 1.8, MgCl2 1.8, 0.2 BaCl2 pH 7.35). The IonWorks uses amphotericin to gain electrical access to the cell interior. The internal solution contained (mM concentrations): 130 K-gluconate, 20 KCl, 5 HEPES-KOH (pH 7.25), 2 CaC12, 1 MgCl2. Amphotericin added at 5 mg in 65 ml when present (in 650 μl DMSO). All internal and external solutions for this experiment contain 1% DMSO. Cells were acutely trypsinized from a T-75 flask and resuspended in extracellular buffer at a density of 2×10^5 cells/ml.
Experiments were performed at room temperature, Transmembrane potential was held at −100 mV for 5 seconds prior to running the voltage protocol. During this time leak currents were measured during a step to −110 mV (200 milliseconds). T-type calcium currents were activated with a 250 millisecond step to −20 mV. This depolarization step was repeated for a total of 10 pulses with an interpulse interval of 1 second. Data were excluded if the following acceptance criteria were not met: total resistance for the pre-compound scan >65 MΩ, pre-compound current >250 pA, post compound total resistance >50 MΩ.
T-type currents were measured as the peak inward current minus the current at the end of the 250 msec step to −20 mV. After the recoding configuration was established there was a pre-compound measurement of current amplitude Compound was added as a 3× solution containing 1% DMSO. After incubation with compound for 10 minutes currents were measured again. The current amplitude after compound addition was divided by the pre-compound current for pulse 10 to determine the traction of current remaining after compound addition. For each compound, 8-point concentration-effect relationships were measured with ½ log serial dilutions.

Row | SMILES | IC50 [nM]
3 | CC[C@H](C)[C@H](NC(=O)N1CCC2(CC1)CN(C(C)C)C2c1ccc(-c2ccccc2)cc1)C(=O)OC (some centres unmarked) | 76
4 | CC(C)CCN1CC2(CCN(C(=O)NC34CC5CC(CC(C5)C3)C4)CC2)C1c1ccc(F)cc1 (centres unmarked) | 68
5 | CC[C@H](C)[C@H](NC(=O)N1CCC2(CC1)CN(C(C)C)C2c1ccc(Cl)cc1)C(=O)OC(C)(C)C (single isomer, unassigned) | 85
6 | CC[C@H](C)[C@H](NC(=O)N1CCC2(CC1)CN(CCC(C)C)C2c1ccc(F)cc1)C(=O)OC (single isomer, unassigned) | 45
7 | O=C(Nc1cc(F)cc(F)c1)N1CCC2(CC1)CN(c1ccc(F)c(Cl)c1)C2c1ccccn1 (single isomer, unassigned) | 60
8 | CC[C@H](C)[C@H](NC(=O)N1CCC2(CC1)CN(CCC(C)C)C2c1ccc(F)cc1)C(=O)OC (some centres unmarked) | 58

Results, then the compound that gave them:

Row | IC50 [nM] | SMILES
9 | 70 | CC(C)CCN1CC2(CCN(C(=O)Nc3cc(F)cc(F)c3)CC2)C1c1ccc(F)cc1 (centres unmarked)
10 | 64 | CC(C)N1CC2(CCN(C(=O)Nc3cccc(F)c3)CC2)C1c1ccc(Cl)cc1 (single isomer, unassigned)
11 | 50 | CC(C)N1CC2(CCN(C(=O)Nc3cccc(C#N)c3)CC2)C1c1ccc(Cl)cc1 (single isomer, unassigned)
12 | 38 | CC(C)N1CC2(CCN(C(=O)Nc3cccc(Cl)c3)CC2)C1c1ccc(Cl)cc1 (single isomer, unassigned)
13 | 49 | CC(C)N1CC2(CCN(C(=O)Nc3ccc(Cl)cc3)CC2)C1c1ccc(Cl)cc1 (single isomer, unassigned)
14 | 76 | CC(C)CCN1CC2(CCN(C(=O)Nc3cc(F)cc(F)c3)CC2)C1c1ccc(F)cc1 (single isomer, unassigned)
15 | 24 | CC[C@H](C)[C@H](NC(=O)N1CCC2(CC1)CN(C(C)C)C2c1ccc(Br)cc1)C(=O)OC (single isomer, unassigned)
16 | 58 | CC(C)N1CC2(CCN(C(=O)Nc3cccc(F)c3)CC2)C1c1ccc(Br)cc1 (single isomer, unassigned)
17 | 44 | CC(C)N1CC2(CCN(C(=O)Nc3cc(F)cc(F)c3)CC2)C1c1ccc(Br)cc1 (single isomer, unassigned)

Target: T2, human GPR119 (Homo sapiens, UniProt Q8TDV5)
T2 construct: expressed in transfected cells
T2 sequence (Q8TDV5 1-335): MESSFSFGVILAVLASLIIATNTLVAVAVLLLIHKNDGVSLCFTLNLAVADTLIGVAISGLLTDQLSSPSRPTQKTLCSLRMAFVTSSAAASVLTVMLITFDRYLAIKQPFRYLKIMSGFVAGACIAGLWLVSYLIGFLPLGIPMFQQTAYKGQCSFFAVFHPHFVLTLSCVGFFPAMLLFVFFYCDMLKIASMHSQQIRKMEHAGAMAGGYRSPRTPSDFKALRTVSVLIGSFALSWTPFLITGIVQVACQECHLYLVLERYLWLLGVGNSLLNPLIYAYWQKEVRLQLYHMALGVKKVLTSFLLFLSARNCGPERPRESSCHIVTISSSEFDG
Assay: GPR119 screening assay (LANCE cAMP, HEK 293 cells stably transfected with human GPR119)
Assay type: cell-based
Conditions: HEK 293 cells stably transfected with human GPR119, LANCE cAMP; read-out: GPR 119 cAMP EC50

Row | SMILES | EC50 [nM]
18 | COc1cc(C(=O)N2CCC3(CC2)CN(c2ccc(C)cc2)C3c2ccc(Cl)cc2)cc(OC)c1OC (centres unmarked) | 1340
19 | COc1cc(C(=O)N2CCC3(CC2)CN(CC(C)C)C3c2ccccc2)cc(OC)c1OC (centres unmarked) | 882
20 | COc1cc(C(=O)N2CCC3(CC2)CN(Cc2ccc(F)cc2F)C3c2ccc(F)cc2)cc(OC)c1OC (centres unmarked) | 1200
21 | O=C(c1ccc2c(c1)OCCCO2)N1CCC2(CC1)CN(Cc1ccc(F)cc1F)C2c1ccc(F)cc1 (centres unmarked) | 1300
22 | COc1cc(C(=O)N2CCC3(CC2)CN(c2ccccc2F)C3c2ccc(Cl)cc2)cc(OC)c1OC (centres unmarked) | 516
23 | COc1cc(C(=O)N2CCC3(CC2)CN(Cc2ccccc2Cl)C3c2ccccc2)cc(OC)c1OC (centres unmarked) | 1260
